Measured values as given in patent US20060029989A1, “Targeting cells having Mad2 mutation for treatment and/or prevention of disease” (Regents of the University of California, priority 1999, published 2006).

Columns and labels:
[1] = test system: established yeast models (mutated MAD1/MAD2 and secondary genes); assay: yeast-based drug screening assay (control system showing lethality versus test system with drug added); type: cell-based; settings: among tested compounds; pharmaceutically acceptable concentrations
Protocol: In essence assay consists of control system in which one observes lethality and test system to which a drug is added and its effect is evaluated based on difference between control and test system. If drug enhances lethality or reverses it this drug is considered as a candidate drug that may be specific in the biochemical pathway controlled by primary and secondary genes.

[2] = test system: glioblastoma cells; assay: growth, replication and phenotype of glioblastoma cells under continuous drug treatment; type: cell-based, human
[3] = test system: glioblastoma cells; assay: tumorigenicity of treated tumor cells in athymic mice; type: in vivo

In the case of O=C([O-])CCCc1ccccc1.[Na+] [phenylbutyrate, 4-phenylbutyrtic acid sodium salt], the “activity in yeast-based screening” value [1] was “active at pharmaceutically acceptable concentrations”, the inhibition of growth ([2]; 4 mM, after 4-6 days of continuous treatment, glioblastoma cells) was “approximately 50%” and the tumor cell replication ([2]; glioblastoma cells, phenylacetate metabolites compared) was “inhibited tumor cell replication”. For the same compound, the “cell maturation and phenotype (cytoskeletal intermediate filaments, anchorage-independence)” value ([2]; tumor cells) was “promoted cell maturation and reversion to a nonmalignant phenotype” and the “tumorigenicity in athymic mice” value [3] was “reduced tumorigenicity”.
